Measured values from US12404241B2 (Celgene Corporation, priority 2018, dated 2025).
Structures can show the parent of a compound that is named as a salt.

Target: T1, AR (Homo sapiens, UniProt P10275)
T1 construct: endogenous in cells; host or cells: VCaP cells
T1 sequence (P10275 1-920): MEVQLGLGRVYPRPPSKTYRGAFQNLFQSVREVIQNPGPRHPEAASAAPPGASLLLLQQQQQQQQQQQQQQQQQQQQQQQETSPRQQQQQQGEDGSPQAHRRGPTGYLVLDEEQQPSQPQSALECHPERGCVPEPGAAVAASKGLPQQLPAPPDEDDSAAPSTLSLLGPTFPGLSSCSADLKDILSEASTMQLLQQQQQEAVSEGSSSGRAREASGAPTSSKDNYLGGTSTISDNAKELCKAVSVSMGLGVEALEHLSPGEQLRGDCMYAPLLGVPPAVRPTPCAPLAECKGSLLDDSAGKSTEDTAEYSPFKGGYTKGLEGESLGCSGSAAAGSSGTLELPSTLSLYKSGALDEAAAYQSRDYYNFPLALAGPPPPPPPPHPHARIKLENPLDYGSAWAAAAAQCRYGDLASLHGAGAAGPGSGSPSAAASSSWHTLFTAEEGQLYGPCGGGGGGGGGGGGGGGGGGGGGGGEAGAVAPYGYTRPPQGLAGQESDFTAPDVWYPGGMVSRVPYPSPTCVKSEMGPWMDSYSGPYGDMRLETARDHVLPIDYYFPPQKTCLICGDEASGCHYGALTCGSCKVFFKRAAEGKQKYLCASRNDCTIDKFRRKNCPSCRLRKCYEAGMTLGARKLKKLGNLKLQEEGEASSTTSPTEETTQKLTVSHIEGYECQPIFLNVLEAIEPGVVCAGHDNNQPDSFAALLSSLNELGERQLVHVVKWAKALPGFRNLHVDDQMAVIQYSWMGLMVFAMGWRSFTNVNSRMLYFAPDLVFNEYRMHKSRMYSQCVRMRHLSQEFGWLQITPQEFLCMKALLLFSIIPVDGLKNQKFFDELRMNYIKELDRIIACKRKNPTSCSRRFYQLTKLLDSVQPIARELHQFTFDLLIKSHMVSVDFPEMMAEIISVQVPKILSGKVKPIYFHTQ
Test: VCAP AR Degradation Assay
Assay type: cell-based
Settings: for Y (AR degradation efficiency, % of DMSO control): class symbols *; for DC50: class symbols A-C, read-out: DC50
Procedure: VCAP AR Degradation Assay. Test compounds were pre-dispensed into a Corning CellBind 96-well clear bottom plate (Cat #3300) using an acoustic dispenser to make a 10-point concentration series at 1:3 dilution for each compound. The final top concentration of each compound was 5 μM. DMSO at a final concentration of 0.1% was used as a control. VCaP cells cultured in DMEM with 8% fetal bovine serum (FBS) were seeded at 50K cells per well in a 200 μL volume into the compound plate and incubated at 37° C. in a CO2 incubator for 24 h. The medium was carefully removed from the cells and the plate was placed on ice. One hundred μL of ice-cold 1x cell lysis buffer from Cell Signaling Technologies (Cat #9803) was added to each well of the cells and the plate was incubated at 4° C. on a shaker for 1 h. Fifteen μL of cell lysate was used for AR ELISA detection using a PathScan Total Sandwich AR ELISA kit (Cell Signaling Technology, Cat #12580). AR levels in compound-treated wells were normalized to that of DMSO control and expressed as percent of control (PoC) (y). A Four Parameter Logistic Model (Sigmoidal Dose-Response Model) was used to determine the compound's DC50, and EC50, using the following equation:
[formula] • A=YMin (lowest AR level normalized to DMSO control in response to compound treatment, as determined by curve fit) • B=YMax (maximum AR level as determined by curve fit) • C=EC50 • D=Hill Slope • x=compound concentration • EC50=the concentration of compound when y=(YMax−YMin)/2 • DC50=the concentration of the compound when y=50% of DMSO control (50% AR degradation) • y=AR protein level normalized to DMSO control
The lowest measured AR level normalized to DMSO control in response to compound treatment, termed Y value, was used to characterize the compound-mediated AR degradation efficiency.

Row | Structure (SMILES) | Y (AR degradation efficiency, % of DMSO control) | DC50 [nM]
1 | Cc1cc(OCCN2CCN(CC(=O)Nc3cccc(NC4CCC(=O)NC4=O)c3)CC2)c(F)cc1N1C(=S)N(c2ccc(C#N)c(C(F)(F)F)c2)C(=O)C1(C)C (stereo not shown) [Example 13, hydrochloride] | *** (35%<Y<50%) | < 100
2 | CCc1cc(N2C(=S)N(c3ccc(C#N)c(C(F)(F)F)c3)C(=O)C2(C)C)ccc1CCCN1CCN(CC(=O)Nc2cccc(NC3CCC(=O)NC3=O)c2)[C@@H](C)C1 (stereo partly drawn) [Example 279, 2-((S)-4-(3-(4-(3-(4-cyano-3-(trifluoromethyl)phenyl)-5,5-dimethyl-4-oxo-2-thioxoimidazolidin-1-yl)-2-ethylphenyl)propyl)-2-methylpiperazin-1-yl)-N-(3-(2,6-dioxopiperidin-3-ylamino)phenyl)acetamide] | * (0<Y<=25%) | < 100
3 | CCc1cc(N2C(=S)N(c3ccc(C#N)c(C(F)(F)F)c3)C(=O)C2(C)C)ccc1OCCN1C[C@@H](C)N(CC(=O)Nc2cc(Cl)cc(NC3CCC(=O)NC3=O)c2)C[C@@H]1C (stereo partly drawn) [Example 123, N-(3-chloro-5-(2,6-dioxopiperidin-3-ylamino)phenyl)-2-((2R,5S)-4-(2-(4-(3-(4-cyano-3-(trifluoromethyl)phenyl)-5,5-dimethyl-4-oxo-2-thioxoimidazolidin-1-yl)-2-ethylphenoxy)ethyl)-2,5-dimethylpiperazin-1-yl)acetamide] | * (0<Y<=25%) | < 100
4 | CC(C)c1cc(N2C(=S)N(c3ccc(C#N)c(C(F)(F)F)c3)C(=O)C2(C)C)cnc1OCCN1C[C@@H](C)N(CC(=O)Nc2cccc(NC3CCC(=O)NC3=O)c2)C[C@H]1C (stereo partly drawn) [Example 230, 2-((2R,5R)-4-(2-(5-(3-(4-cyano-3-(trifluoromethyl)phenyl)-5,5-dimethyl-4-oxo-2-thioxoimidazolidin-1-yl)-3-isopropylpyridin-2-yloxy)ethyl)-2,5-dimethylpiperazin-1-yl)-N-(3-(2,6-dioxopiperidin-3-ylamino)phenyl)acetamide] | *** (35%<Y<50%) | 500 to 1000
5 | CC(F)(F)c1cc(N2C(=S)N(c3cnc(C#N)c(C(F)(F)F)c3)C(=O)C2(C)C)ccc1OCCN1CCN(CC(=O)Nc2cc(Cl)cc(NC3CCC(=O)NC3=O)c2)CC1 (stereo not shown) [Example 62, N-(3-chloro-5-(2,6-dioxopiperidin-3-ylamino)phenyl)-2-(4-(2-(4-(3-(6-cyano-5-(trifluoromethyl)pyridin-3-yl)-5,5-dimethyl-4-oxo-2-thioxoimidazolidin-1-yl)-2-(1,1-difluoroethyl)phenoxy)ethyl)piperazin-1-yl)acetamide] | * (0<Y<=25%) | < 100
6 | CC(C)c1cc(N2C(=S)N(c3ccc(C#N)c(Cl)c3)C(=O)C2(C)C)ccc1OCCN1C[C@@H](C)N(CC(=O)Nc2cccc(NC3CCC(=O)NC3=O)c2)[C@@H](C)C1 (stereo partly drawn) [Example 202, 2-((2S,6R)-4-(2-(4-(3-(3-chloro-4-cyanophenyl)-5,5-dimethyl-4-oxo-2-thioxoimidazolidin-1-yl)-2-isopropylphenoxy)ethyl)-2,6-dimethylpiperazin-1-yl)-N-(3-(2,6-dioxopiperidin-3-ylamino)phenyl)acetamide] | * (0<Y<=25%) | < 100
7 | CC(C)c1cc(N2C(=S)N(c3cnc(C#N)c(C(F)(F)F)c3)C(=O)C23CCC3)ccc1OCCN1C[C@@H](C)N(CC(=O)Nc2cc(C#N)cc(NC3CCC(=O)NC3=O)c2)[C@@H](C)C1 (stereo partly drawn) [Example 210, N-(3-cyano-5-(2,6-dioxopiperidin-3-ylamino)phenyl)-2-((2S,6R)-4-(2-(4-(7-(6-cyano-5-(trifluoromethyl)pyridin-3-yl)-8-oxo-6-thioxo-5,7-diazaspiro[3.4]octan-5-yl)-2-isopropylphenoxy)ethyl)-2,6-dimethylpiperazin-1-yl)acetamide] | * (0<Y<=25%) | < 100
8 | CC(C)Cc1cc(N2C(=S)N(c3ccc(C#N)c(C(F)(F)F)c3)C(=O)C2(C)C)ccc1OCCN1CCN(CC(=O)Nc2cccc(NC3CCC(=O)NC3=O)c2)CC1 (stereo not shown) [Example 18] | * (0<Y<=25%) | < 100
9 | CC[C@H]1CN(CCOc2ccc(N3C(=S)N(c4ccc(C#N)c(C(F)(F)F)c4)C(=O)C3(C)C)cc2C2CC2)CCN1CC(=O)Nc1cccc(NC2CCC(=O)NC2=O)c1 (stereo partly drawn) [Example 263, 2-((S)-4-(2-(4-(3-(4-cyano-3-(trifluoromethyl)phenyl)-5,5-dimethyl-4-oxo-2-thioxoimidazolidin-1-yl)-2-cyclopropylphenoxy)ethyl)-2-ethylpiperazin-1-yl)-N-(3-(2,6-dioxopiperidin-3-ylamino)phenyl)acetamide] | * (0<Y<=25%) | < 100
10 | CCc1cc(N2C(=S)N(c3ccc(C#N)c(C(F)(F)F)c3)C(=O)C2(C)C)ccc1OCCN1CCN(CC(=O)Nc2cccc(NC3CCC(=O)NC3=O)c2)C(C)(C)C1 (stereo not shown) [Example 95, 2-(4-(2-(4-(3-(4-cyano-3-(trifluoromethyl)phenyl)-5,5-dimethyl-4-oxo-2-thioxoimidazolidin-1-yl)-2-ethylphenoxy)ethyl)-2,2-dimethylpiperazin-1-yl)-N-(3-(2,6-dioxopiperidin-3-ylamino)phenyl)acetamide] | * (0<Y<=25%) | < 100
11 | CCc1cc(N2C(=S)N(c3ccc(C#N)c(C(F)(F)F)c3)C(=O)C2(C)C)ccc1CCCN1C[C@@H](C)N(CC(=O)Nc2cccc(NC3CCC(=O)NC3=O)c2)C[C@H]1C (stereo partly drawn) [Example 273, 2-((2R,5R)-4-(3-(4-(3-(4-cyano-3-(trifluoromethyl)phenyl)-5,5-dimethyl-4-oxo-2-thioxoimidazolidin-1-yl)-2-ethylphenyl)propyl)-2,5-dimethylpiperazin-1-yl)-N-(3-(2,6-dioxopiperidin-3-ylamino)phenyl)acetamide] | * (0<Y<=25%) | < 100
12 | CC1(C)C(=O)N(c2ccc(C#N)c(C(F)(F)F)c2)C(=S)N1c1ccc(OCCN2CCN(CC(=O)Nc3cccc(NC4CCC(=O)NC4=O)c3)CC2)c(CCF)c1 (stereo not shown) [Example 160, 2-(4-(2-(4-(3-(4-cyano-3-(trifluoromethyl)phenyl)-5,5-dimethyl-4-oxo-2-thioxoimidazolidin-1-yl)-2-(2-fluoroethyl)phenoxy)ethyl)piperazin-1-yl)-N-(3-(2,6-dioxopiperidin-3-ylamino)phenyl)acetamide] | * (0<Y<=25%) | < 100
13 | C[C@@H]1CN(CCOc2ccc(N3C(=S)N(c4cnc(C#N)c(C(F)(F)F)c4)C(=O)C34CCC4)cc2C(C)(F)F)C[C@H](C)N1CC(=O)Nc1cccc(NC2CCC(=O)NC2=O)c1 (stereo partly drawn) [Example 265, 2-((2S,6R)-4-(2-(4-(7-(6-cyano-5-(trifluoromethyl)pyridin-3-yl)-8-oxo-6-thioxo-5,7-diazaspiro[3.4]octan-5-yl)-2-(1,1-difluoroethyl)phenoxy)ethyl)-2,6-dimethylpiperazin-1-yl)-N-(3-(2,6-dioxopiperidin-3-ylamino)phenyl)acetamide] | * (0<Y<=25%) | < 100
14 | CCc1cc(N2C(=S)N(c3ccc(C#N)c(C(F)(F)F)c3)C(=O)C2(C)C)ccc1OCCN1CCN(CC(=O)Nc2cccc(N[C@@H]3CCC(=O)NC3=O)c2)CC1 [Example 28, hydrochloride] | * (0<Y<=25%) | < 100
